The source of these data is patent US20250304563A1, “ACTIVATORS OF EFFECTOR T CELLS” (Orum Therapeutics, Inc., priority 2022, published 2025).

pIC50: −log10 of the molar value.

Test [1] deals with Human primary T cells. Briefly: T cell activation: secreted IL-2. It is filed as cell-based. To be noted: 48 hours, fold over background normalized to Compound 141A; for IL-2 1 nM: 1 nM compound; for IL-2 10 nM: 10 nM compound; for IL-2 100 nM: 100 nM compound. An outline of the steps: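 IL-2 values are fold over anti-CD3/CD28 background, normalized to a reference compound and sorted into ranges. They come from supernatants of human pan-T cells captured on anti-CD3-coated plates and exposed 48 h, 37° C., to duplicate compound dilutions, measured with cytometric beads.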

The test system of test [2] is Human primary T cells. Briefly: T cell activation: secreted IFN-y. It counts as cell-based. To be noted: 48 hours, fold over background normalized to Compound 141A; for IFN-y 1 nM: 1 nM compound; for IFN-y 10 nM: 10 nM compound; for IFN-y 100 nM: 100 nM compound. An outline of the steps: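 Values are binned ranges (A–D) of fold increase over anti-CD3/CD28 background, normalized to a reference compound, for IFN-γ in supernatants measured by bead array. Pan-T cells from donor PBMC or LeukoPaks were stimulated on anti-CD3-coated wells (10 μg/mL coating) in serum-free medium with compound for 48 h at 37 °C.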

Test [3] addresses Cbl-b (36-427 aa truncated form, N-terminus Avi-tag) (Homo sapiens (Human), UniProt Q13191). Nature of the test: Cbl-b binding: TR-FRET displacement of BODIPY-FL probe. An outline of the steps:
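IC50 from loss of terbium–BODIPY-FL TR-FRET signal as compounds compete off a fluorescent Cbl-b inhibitor probe (1 uM) for 1 h at RT. Protein: N-Avi-tagged human Cbl-b 36-427 on streptavidin-terbium, 20 mM HEPES pH 7.5 buffer.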
(TR-FRET usually uses a lanthanide donor and a delayed reading to cut background.)

Test [4] concerns Human primary T cells. Nature of the test: T cell activation: CD69 surface expression by flow cytometry. It counts as cell-based. To be noted: fold over anti-CD3 stimulated background normalized to Compound 141A; for CD69 1 nM: 1 nM compound; for CD69 10 nM: 10 nM compound; for CD69 100 nM: 100 nM compound. The gist of the method: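 Read-out is flow-cytometric CD69 surface staining, expressed as fold increase over anti-CD3-stimulated background and normalized to Compound 141A. Human pan T cells from PBMC or LeukoPaks were plated on OKT3-coated wells in serum-free XVivo-15. Compound dilutions were added for 48 h at 37° C, 5% CO2.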

Cbl-b (36-427 aa truncated form, N-terminus Avi-tag), sequence (Q13191 36-427): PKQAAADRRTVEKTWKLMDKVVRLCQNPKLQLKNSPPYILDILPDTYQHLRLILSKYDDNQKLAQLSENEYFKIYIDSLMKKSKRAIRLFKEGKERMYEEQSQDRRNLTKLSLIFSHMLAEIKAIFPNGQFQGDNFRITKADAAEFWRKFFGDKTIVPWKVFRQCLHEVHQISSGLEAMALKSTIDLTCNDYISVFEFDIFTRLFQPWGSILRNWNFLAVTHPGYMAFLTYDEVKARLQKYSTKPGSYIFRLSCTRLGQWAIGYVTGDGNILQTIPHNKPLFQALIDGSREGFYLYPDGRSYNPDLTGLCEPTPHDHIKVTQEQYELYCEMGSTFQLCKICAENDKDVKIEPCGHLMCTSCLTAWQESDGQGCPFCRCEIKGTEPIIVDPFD

Turning to `CCNc1cc(C2(c3nncn3C)CC(C)C2)cc(N2Cc3c(cc(CN4CCC[C@H](C)C4)cc3C(F)(F)F)C2=O)n1` (some centres unmarked) [Compound 171, 2-[6-(ethylamino)-4-[(1r,3s)-3-methyl-1-(4-methyl-1,2,4-triazol-3-yl)cyclobutyl]pyridin-2-yl]-6-{[(3 S)-3-methylpiperidin-1-yl]methyl}-4-(trifluoromethyl)-3H-isoindol-1-one], in test [1], the “IL-2 1 nM” value was “C (values between 0.10 and 0.30: range “C”)”; the “IL-2 10 nM” value is “C (values between 0.10 and 0.30: range “C”)”; the “IL-2 100 nM” value is “B (values between 0.31 and 0.79: range “B”)”. In test [2], the “IFN-y 1 nM” value was “B (values between 0.31 and 1.00: range “B;”)”; the “IFN-y 10 nM” value was “B (values between 0.31 and 1.00: range “B;”)”; the “IFN-y 100 nM” value is “A (fold over background between 1.10 and 2.00: range “A”)”. Besides, the negative logarithm of the IC50 (pIC50) in test [3] is 6.00 to 7.00. In test [4], the “CD69 1 nM” value was “C (values between 0.30 and 0.60: range “C”)”; the “CD69 10 nM” value was “C (values between 0.30 and 0.60: range “C”)”; the “CD69 100 nM” value was “X (fold over background values between 1.11 and 1.6: range “X”)”.
Consider `CSc1cc(CN2CCC[C@H](C)C2)cc2c1CN(c1cc(C3(Cc4nncn4C)COC3)cc(N)n1)C2=O` [Compound 173], for which, in test [1], the “IL-2 1 nM” value is “D (values between 0.01 and 0.09: range “D.”)”; the “IL-2 10 nM” value was “D (values between 0.01 and 0.09: range “D.”)”; the “IL-2 100 nM” value was “D (values between 0.01 and 0.09: range “D.”)”. For the same molecule, in test [2], the “IFN-y 1 nM” value was “C (values between 0.10 and 0.30: range “C”)”; the “IFN-y 10 nM” value was “B (values between 0.31 and 1.00: range “B;”)”; the “IFN-y 100 nM” value was “B (values between 0.31 and 1.00: range “B;”)”. Further, the pIC50 in test [3] was 8.30 to 9.00. In addition, in test [4], the “CD69 1 nM” value was “C (values between 0.30 and 0.60: range “C”)”; the “CD69 10 nM” value was “C (values between 0.30 and 0.60: range “C”)”; the “CD69 100 nM” value was “C (values between 0.30 and 0.60: range “C”)”.
Take `CSc1cc(CN2CCC[C@H](C)C2)cc2c1CN(c1cc([C@]3(c4nncn4C)C[C@H](C)C3)cc(N)n1)C2=O` [Compound 174, 2-{6-amino-4-[(1r,3s)-3-methyl-1-(4-methyl-1,2,4-triazol-3-yl)cyclobutyl]pyridin-2-yl}-6-{[(3S)-3-methylpiperidin-1-yl]methyl}-4-(methylsulfanyl)-3H-isoindol-1-one]: in test [1], the “IL-2 1 nM” value was “D (values between 0.01 and 0.09: range “D.”)”; the “IL-2 10 nM” value was “D (values between 0.01 and 0.09: range “D.”)”; the “IL-2 100 nM” value was “B (values between 0.31 and 0.79: range “B”)”. In test [2], the “IFN-y 1 nM” value was “B (values between 0.31 and 1.00: range “B;”)”; the “IFN-y 10 nM” value was “B (values between 0.31 and 1.00: range “B;”)”; the “IFN-y 100 nM” value was “B (values between 0.31 and 1.00: range “B;”)”. In test [3], this molecule gave a pIC50 of 7.70 to 8.30. In addition, in test [4], the “CD69 1 nM” value was “C (values between 0.30 and 0.60: range “C”)”; the “CD69 10 nM” value is “C (values between 0.30 and 0.60: range “C”)”; the “CD69 100 nM” value was “B (values between 0.61 and 0.80: range “B;”)”.
Consider `CCNc1cc(C2(Cc3nncn3C)COC2)cc(N2Cc3c(SC)cc(CN4CCCCC4)cc3C2=O)n1` [Compound 175, 2-[6-(ethylamino)-4-{3-[(4-methyl-1,2,4-triazol-3-yl)methyl]oxetan-3-yl}pyridin-2-yl]-4-(methylsulfanyl)-6-(piperidin-1-ylmethyl)-3H-isoindol-1-one], for which, in test [1], the “IL-2 1 nM” value is “D (values between 0.01 and 0.09: range “D.”)”; the “IL-2 10 nM” value was “D (values between 0.01 and 0.09: range “D.”)”; the “IL-2 100 nM” value is “C (values between 0.10 and 0.30: range “C”)”. In test [2], the “IFN-y 1 nM” value was “C (values between 0.10 and 0.30: range “C”)”; the “IFN-y 10 nM” value is “B (values between 0.31 and 1.00: range “B;”)”; the “IFN-y 100 nM” value was “B (values between 0.31 and 1.00: range “B;”)”. The molecule also showed a negative-log IC50 (pIC50) in test [3] of 8.30 to 9.00. In test [4], the “CD69 1 nM” value was “C (values between 0.30 and 0.60: range “C”)”; the “CD69 10 nM” value was “C (values between 0.30 and 0.60: range “C”)”; the “CD69 100 nM” value was “B (values between 0.61 and 0.80: range “B;”)”.
On to `CCNc1cc([C@]2(c3nncn3C)C[C@H](C)C2)cc(N2Cc3ncc(CN4CCC[C@H](C)C4)cc3C2=O)n1` [Compound 176, 6-[6-(ethylamino)-4-[(1r,3s)-3-methyl-1-(4-methyl-1,2,4-triazol-3-yl)cyclobutyl]pyridin-2-yl]-3-{[(3S)-3-methylpiperidin-1-yl]methyl}-7H-pyrrolo[3,4-b]pyridin-5-one], for which, in test [1], the “IL-2 1 nM” value is “D (values between 0.01 and 0.09: range “D.”)”; the “IL-2 10 nM” value is “C (values between 0.10 and 0.30: range “C”)”; the “IL-2 100 nM” value is “B (values between 0.31 and 0.79: range “B”)”. For the same molecule, in test [2], the “IFN-y 1 nM” value was “C (values between 0.10 and 0.30: range “C”)”; the “IFN-y 10 nM” value is “B (values between 0.31 and 1.00: range “B;”)”; the “IFN-y 100 nM” value is “B (values between 0.31 and 1.00: range “B;”)”. This molecule showed a negative logarithm of the IC50 (pIC50) in test [3] of 7.70 to 8.30. Also, in test [4], the “CD69 1 nM” value is “C (values between 0.30 and 0.60: range “C”)”; the “CD69 10 nM” value is “C (values between 0.30 and 0.60: range “C”)”; the “CD69 100 nM” value was “B (values between 0.61 and 0.80: range “B;”)”.
`CCNc1cc(C2(c3nncn3C)CC(C)C2)cc(N2Cc3c(SC)cc(CN4CCC[C@H](C)C4)cc3C2=O)n1` (stereo partly drawn) [Compound 181, 2-[6-(ethylamino)-4-[(1r,3s)-3-methyl-1-(4-methyl-1,2,4-triazol-3-yl)cyclobutyl]pyridin-2-yl]-6-{[(3S)-3-methylpiperidin-1-yl]methyl}-4-(methylsulfanyl)-3H-isoindol-1-one]: in test [1], the “IL-2 1 nM” value is “D (values between 0.01 and 0.09: range “D.”)”; the “IL-2 10 nM” value is “C (values between 0.10 and 0.30: range “C”)”; the “IL-2 100 nM” value was “A (between 0.80 and 1.40: range “A”)”. Further, in test [2], the “IFN-y 1 nM” value was “B (values between 0.31 and 1.00: range “B;”)”; the “IFN-y 10 nM” value was “B (values between 0.31 and 1.00: range “B;”)”; the “IFN-y 100 nM” value was “A (fold over background between 1.10 and 2.00: range “A”)”. Besides, in test [3], the negative-log IC50 (pIC50) is 8.30 to 9.00. For the same molecule, in test [4], the “CD69 1 nM” value was “C (values between 0.30 and 0.60: range “C”)”; the “CD69 10 nM” value is “B (values between 0.61 and 0.80: range “B;”)”; the “CD69 100 nM” value was “X (fold over background values between 1.11 and 1.6: range “X”)”.
Take `C[C@H]1CCCN(Cc2cc3c(c(C(F)(F)F)c2)CN(c2cc(C4(Cc5nncn5C)COC4)cc(NCc4c[nH]nn4)n2)C3=O)C1.O=C(O)C(F)(F)F` [Compound 182, (S)-2-(6-(((1H-1,2,3-triazol-4-yl)methyl)amino)-4-(3-((4-methyl-4H-1,2,4-triazol-3-yl)methyl)oxetan-3-yl)pyridin-2-yl)-6-((3-methylpiperidin-1-yl)methyl)-4-(trifluoromethyl)isoindolin-1-one; trifluoroacetic acid]: in test [1], the “IL-2 1 nM” value was “D (values between 0.01 and 0.09: range “D.”)”; the “IL-2 10 nM” value was “D (values between 0.01 and 0.09: range “D.”)”; the “IL-2 100 nM” value is “D (values between 0.01 and 0.09: range “D.”)”. For the same molecule, in test [2], the “IFN-y 1 nM” value is “C (values between 0.10 and 0.30: range “C”)”; the “IFN-y 10 nM” value was “C (values between 0.10 and 0.30: range “C”)”; the “IFN-y 100 nM” value was “B (values between 0.31 and 1.00: range “B;”)”. For the same molecule, the pIC50 in test [3] is 7.70 to 8.30. In test [4], the “CD69 1 nM” value was “C (values between 0.30 and 0.60: range “C”)”; the “CD69 10 nM” value is “C (values between 0.30 and 0.60: range “C”)”; the “CD69 100 nM” value is “C (values between 0.30 and 0.60: range “C”)”.
For the molecule `Cn1cnnc1CC1(c2cc(NCCC#N)nc(N3Cc4c(cc(CN5CCN(c6nccs6)CC5)cc4C(F)(F)F)C3=O)c2)COC1.O=C(O)C(F)(F)F` [Compound 186, 3-((4-(3-((4-methyl-4H-1,2,4-triazol-3-yl)methyl)oxetan-3-yl)-6-(1-oxo-6-((4-(thiazol-2-yl)piperazin-1-yl)methyl)-4-(trifluoromethyl)isoindolin-2-yl)pyridin-2-yl)amino)propanenitrile; trifluoroacetic acid], in test [1], the “IL-2 1 nM” value was “D (values between 0.01 and 0.09: range “D.”)”; the “IL-2 10 nM” value is “D (values between 0.01 and 0.09: range “D.”)”; the “IL-2 100 nM” value is “D (values between 0.01 and 0.09: range “D.”)”. For the same molecule, in test [2], the “IFN-y 1 nM” value is “C (values between 0.10 and 0.30: range “C”)”; the “IFN-y 10 nM” value was “C (values between 0.10 and 0.30: range “C”)”; the “IFN-y 100 nM” value was “B (values between 0.31 and 1.00: range “B;”)”. For the same molecule, the negative-log IC50 (pIC50) in test [3] was 7.70 to 8.30. In addition, in test [4], the “CD69 1 nM” value was “C (values between 0.30 and 0.60: range “C”)”; the “CD69 10 nM” value was “C (values between 0.30 and 0.60: range “C”)”; the “CD69 100 nM” value was “C (values between 0.30 and 0.60: range “C”)”.

Broadly, the pIC50 is the IC50 on a negative log10 scale, so that one unit is a factor of ten. A high value points to a low IC50.
